According to patent US10487044B2, “Gamma-aminobutyric acid hemihydrate crystal and preparation method thereof” (priority 2016, dated 2019):
Read-outs that look alike come from different tables or passages of the source.

Experiments:
[1] = prior-art product, exposed to air; cited from earlier work
[2] = Particle size distribution by laser particle size analyzer; type: physicochemical; conditions: hemihydrate
Description: The particle size distribution curves of the products in the embodiments of the present invention were all determined by Masterizer laser particle size analyzer from Malvern Panalytical (the U.K.).

Bulk density test = type: physicochemical
[3] = Moisture absorption and agglomeration; type: physicochemical
[4] = Flowability test (angle of repose); type: physicochemical
Method: Flowability test: The angle of repose is the maximum angle formed between the free slope of a piled powder and the horizontal plane. It is measured when the particles achieve a static state as they slide on the free slope of the piled powder and experience a balance of gravity and interparticle friction. It is the easiest way to examine the flowability of a powder. The smaller the angle of repose, the smaller the friction and the better the flowability.

| Structure (SMILES) | moisture absorption and agglomeration [3] | bulk density (in words) (Bulk density test) | flowability (in words) [4] | other results |
| --- | --- | --- | --- | --- |
| NCCCC(=O)O |  |  |  | hygroscopicity [1]: highly hygroscopic |
| NCCCC(=O)O [Embodiment 1, γ-aminobutyric acid hemihydrate] | did not easily absorb moisture and agglomerate |  |  | main particle size [2]: 110 μm; bulk density (Bulk density test; hemihydrate): 0.85 g/mL; angle of repose ([4]; hemihydrate): 38 ° |
| NCCCC(=O)O [Embodiment 2, γ-aminobutyric acid hemihydrate] | did not easily absorb moisture and agglomerate | high bulk density | good flowability |  |
| NCCCC(=O)O [Embodiment 3, γ-aminobutyric acid hemihydrate] | did not easily absorb moisture and agglomerate | high bulk density | good flowability |  |
| NCCCC(=O)O [Embodiment 4, γ-aminobutyric acid hemihydrate] | did not easily absorb moisture and agglomerate | high bulk density | good flowability |  |
| NCCCC(=O)O [Embodiment 5, γ-aminobutyric acid hemihydrate] | did not easily absorb moisture and agglomerate | high bulk density | good flowability |  |
| NCCCC(=O)O [Embodiment 6, γ-aminobutyric acid hemihydrate] | did not easily absorb moisture and agglomerate | high bulk density | good flowability |  |
| NCCCC(=O)O [crude λ-aminobutyric acid raw material, γ-aminobutyric acid, reference compound] |  |  |  | bulk density (Bulk density test): 0.65 g/mL; angle of repose [4]: 50 ° |
